Source: patent US9878996B2, “2-imidazolyl-pyrimidine scaffolds as potent and selective inhibitors of neuronal nitric oxide synthase” (Northwestern University, priority 2014, dated 2018)
Entries after “also recorded” stand apart in the source; their conditions may differ. Read-outs that look alike come from different tables or passages of the source.

Tests used:
rat nNOS = rat nNOS (Rattus norvegicus (Rat), UniProt P29476)
eNOS [1] = molecular target: eNOS (Bos taurus, UniProt P29473); details: read-out: Ki eNOS; Ki from IC50 by Cheng-Prusoff
eNOS [2] = details: for Ratios n/e: selectivity nNOS over eNOS
iNOS [3] = molecular target: T1, iNOS (Mus musculus (Mouse), UniProt P29477); details: for Ki: read-out: Ki iNOS, Ki from IC50 by Cheng-Prusoff; for Ratios n/i: selectivity nNOS over iNOS
caco-2 = assay: Caco-2 assay; format: in vitro ADME
[4] = test system: panel of other CNS targets, including the muscarinic receptors; assay: Primary binding assays on a panel of other CNS targets (NIMH PDSP); details: 10 μM concentration
human nNOS = human nNOS (Homo sapiens (Human), UniProt P29475); details: for Ki: read-out: Ki hnNOS, Ki from IC50 by Cheng-Prusoff
iNOS [5] = molecular target: T1, iNOS; assay: biochemical
CYP3A4 = CYP3A4 (Homo sapiens (Human), UniProt P08684); assay: CYP3A4 inhibition; format: in vitro ADME
[6] = read-out: Ki nNOS, rat nNOS, Ki from IC50 by Cheng-Prusoff
[7] = rat nNOS, Ki from IC50 by Cheng-Prusoff

Chain of eNOS (Bos taurus, UniProt P29473) (P29473 2-1205 limits assumed): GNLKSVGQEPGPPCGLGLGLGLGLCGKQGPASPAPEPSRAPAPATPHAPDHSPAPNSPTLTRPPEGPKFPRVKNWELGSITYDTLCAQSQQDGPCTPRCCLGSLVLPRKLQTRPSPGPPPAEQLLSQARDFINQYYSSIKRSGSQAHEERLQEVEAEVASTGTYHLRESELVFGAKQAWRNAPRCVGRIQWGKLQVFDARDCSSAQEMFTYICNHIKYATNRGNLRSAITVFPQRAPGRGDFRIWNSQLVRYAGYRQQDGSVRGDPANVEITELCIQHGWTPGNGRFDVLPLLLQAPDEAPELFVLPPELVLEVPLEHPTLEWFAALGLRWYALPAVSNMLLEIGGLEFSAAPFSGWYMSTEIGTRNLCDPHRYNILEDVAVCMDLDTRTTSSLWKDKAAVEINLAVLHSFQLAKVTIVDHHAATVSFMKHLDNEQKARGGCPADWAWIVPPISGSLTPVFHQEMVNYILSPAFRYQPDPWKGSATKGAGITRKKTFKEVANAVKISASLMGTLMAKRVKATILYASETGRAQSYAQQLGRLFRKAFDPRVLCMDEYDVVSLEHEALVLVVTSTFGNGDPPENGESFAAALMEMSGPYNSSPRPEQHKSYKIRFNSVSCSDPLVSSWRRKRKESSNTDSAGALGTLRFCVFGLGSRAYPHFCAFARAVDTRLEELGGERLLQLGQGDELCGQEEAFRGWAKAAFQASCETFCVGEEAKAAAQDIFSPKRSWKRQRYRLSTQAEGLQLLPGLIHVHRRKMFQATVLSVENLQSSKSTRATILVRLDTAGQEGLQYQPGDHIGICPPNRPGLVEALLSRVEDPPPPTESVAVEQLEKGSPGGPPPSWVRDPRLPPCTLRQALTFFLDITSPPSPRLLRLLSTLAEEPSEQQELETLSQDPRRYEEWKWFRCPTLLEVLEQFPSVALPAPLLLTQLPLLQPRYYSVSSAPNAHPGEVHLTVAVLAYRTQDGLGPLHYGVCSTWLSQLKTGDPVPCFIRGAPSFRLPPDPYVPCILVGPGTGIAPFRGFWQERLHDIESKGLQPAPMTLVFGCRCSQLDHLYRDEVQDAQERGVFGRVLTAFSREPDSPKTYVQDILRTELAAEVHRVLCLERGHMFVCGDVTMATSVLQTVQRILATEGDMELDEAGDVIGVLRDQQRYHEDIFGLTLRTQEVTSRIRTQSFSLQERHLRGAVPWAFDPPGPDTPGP
Chain of CYP3A4 (P08684 whole entry, species assumed): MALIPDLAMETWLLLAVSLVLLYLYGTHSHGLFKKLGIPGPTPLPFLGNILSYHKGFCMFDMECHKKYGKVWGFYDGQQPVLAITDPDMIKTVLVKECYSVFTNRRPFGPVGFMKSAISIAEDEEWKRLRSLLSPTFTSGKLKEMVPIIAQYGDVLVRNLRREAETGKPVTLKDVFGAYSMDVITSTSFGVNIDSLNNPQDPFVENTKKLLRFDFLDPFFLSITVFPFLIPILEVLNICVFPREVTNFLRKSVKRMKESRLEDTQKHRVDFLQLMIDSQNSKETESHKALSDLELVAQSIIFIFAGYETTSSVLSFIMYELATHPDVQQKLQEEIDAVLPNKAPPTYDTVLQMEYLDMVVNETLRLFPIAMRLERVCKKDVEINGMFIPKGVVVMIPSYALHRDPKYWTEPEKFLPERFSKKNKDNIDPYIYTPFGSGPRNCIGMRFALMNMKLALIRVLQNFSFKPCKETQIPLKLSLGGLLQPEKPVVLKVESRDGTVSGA

**Q.** Fc1cccc(CCN2CCN(c3ccnc(-n4ccnc4)n3)CC2)c1 [Compound 2] was tested. Which Ki (rat nNOS; [6]) did it give?
**A.** The Ki was 4700 nM.

**Q.** How did the “Ki nNOS” value (rat nNOS; [7]) turn out when Fc1cccc(CCNCCNc2ccnc(-n3ccnc3)n2)c1 [Compound 3] was run?
**A.** Its value is “moderate submicromolar”.

**Q.** What about the Ki (rat nNOS; [6]) of the same compound?
**A.** The Ki was 370 nM.

**Q.** And the Ki (eNOS [1])?
**A.** Its Ki is 40 µM.

**Q.** And the “selectivity over eNOS” value (eNOS [2])?
**A.** The value was greater than 100 fold.

**Q.** What about the Ratios n/e (eNOS [2]) of the same compound?
**A.** The Ratios n/e was 109.

**Q.** And the “selectivity over iNOS” value (iNOS [3])?
**A.** The value was 17 fold.

**Q.** And the Ki (iNOS [3])?
**A.** The Ki was 6400 nM.

**Q.** And the Ratios n/i (iNOS [3])?
**A.** The Ratios n/i was 17.

**Q.** For Fc1cccc(CCNCc2ccnc(-n3ccnc3)n2)c1 [Compound 4], which Ki (rat nNOS; [6]) is on record?
**A.** The Ki was 8700 nM.

**Q.** Fc1cccc(CCCNCc2ccnc(-n3ccnc3)n2)c1 [Compound 5] was tested. Which Ki (rat nNOS; [6]) did it give?
**A.** Its Ki is 2700 nM.

**Q.** What about the Ki (eNOS [1]) of the same compound?
**A.** Its Ki is 90 µM.

**Q.** And the Ratios n/e (eNOS [2])?
**A.** The Ratios n/e was 33.

**Q.** And the Ki (iNOS [3])?
**A.** Its Ki is 10500 nM.

**Q.** What about the Ratios n/i (iNOS [3]) of the same compound?
**A.** The Ratios n/i was 4.

**Q.** Which Ki (eNOS [1]) does the source give for Fc1cccc(CCNCCc2ccnc(-n3ccnc3)n2)c1 [Compound 6] here?
**A.** Its Ki is 4 µM.

**Q.** What about the Ki (iNOS [3]) of the same compound?
**A.** The Ki was 1100 nM.

**Q.** Which “membrane / cellular permeability” value (caco-2) does the source give for Fc1cccc(CCCNCCc2ccnc(-n3ccnc3)n2)c1 [Compound 7] here?
**A.** The value was “good cellular permeability; also recorded: has membrane permeability”.

**Q.** And the “inhibition of other CNS targets” value [4]?
**A.** Its value is “minimal inhibition for most of them”.

**Q.** And the Ki (rat nNOS; [6])?
**A.** Its Ki is 19 nM.

**Q.** And the Ki (eNOS [1])?
**A.** The Ki was 4.95 µM.

**Q.** And the Ki (iNOS [3])?
**A.** The Ki was 770 nM.

**Q.** What about the Ki (human nNOS) of the same compound?
**A.** The Ki was 193 nM.

**Q.** What does the source list for Clc1cccc(CCCNCCc2ccnc(-n3ccnc3)n2)c1 [Compound 25]?
**A.** Ki (rat nNOS; [6]): 32 nM; Ki (eNOS [1]): 8.1 µM; Ratios n/e (eNOS [2]): 253; Ratios n/i (iNOS [3]): 28; Ki (human nNOS): 125 nM; Ki (iNOS [5]): 2 µM

**Q.** Fc1cccc(C2CC2CNCCc2ccnc(-n3ccnc3)n2)c1 (centres unmarked) [Compound 26] was tested. Which Ki (rat nNOS; [6]) did it give?
**A.** Its Ki is 56 nM.

**Q.** And the Ki (eNOS [1])?
**A.** Its Ki is 4 µM.

**Q.** And the Ratios n/e (eNOS [2])?
**A.** Its Ratios n/e is 71.

**Q.** What about the Ki (iNOS [3]) of the same compound?
**A.** The Ki was 1900 nM.

**Q.** And the Ratios n/i (iNOS [3])?
**A.** Its Ratios n/i is 34.

**Q.** What about the Ki (human nNOS) of the same compound?
**A.** Its Ki is 359 nM.

**Q.** Which results are given for Fc1cccc(CC2CC2NCCc2ccnc(-n3ccnc3)n2)c1 (centres unmarked) [Compound 27]?
**A.** Ki (rat nNOS; [6]): 40 nM; Ki (eNOS [1]): 14.5 µM; Ki (human nNOS): 358 nM

**Q.** For N#Cc1cccc(CNCCc2ccnc(-n3ccnc3)n2)c1 [Compound 28], which Ki (rat nNOS; [6]) is on record?
**A.** Its Ki is 183 nM.

**Q.** What about the Ki (eNOS [1]) of the same compound?
**A.** The Ki was 10.5 µM.

**Q.** And the Ki (iNOS [3])?
**A.** Its Ki is 3400 nM.

**Q.** And the Ki (human nNOS)?
**A.** The Ki was 138 nM.

**Q.** Which results are given for c1cncc(CCCNCCc2ccnc(-n3ccnc3)n2)c1 [Compound 29]?
**A.** Ki nNOS (rat nNOS; [7]): good potency; Ki (rat nNOS; [6]): 54 nM; Ki (eNOS [1]): 10.9 µM; Ki hnNOS (human nNOS; Ki from IC50 by Cheng-Prusoff): good potency; Ki (human nNOS): 125 nM

**Q.** Which Ki (rat nNOS; [6]) does the source give for Fc1cccc(CCCNCCc2ccnc(-n3ccnn3)n2)c1 [Compound 30] here?
**A.** The Ki was 60000 nM.

**Q.** With Cc1cn(-c2nccc(CCNCCCc3cccc(F)c3)n2)cn1 [Compound 31] as the compound, how does the IC50 (CYP3A4) read?
**A.** The IC50 was 15 µM.

**Q.** What about the Ki (rat nNOS; [6]) of the same compound?
**A.** Its Ki is 667 nM.

**Q.** And the Ki (rat nNOS; read-out: potency for nNOS)?
**A.** Its Ki is 667 nM.

**Q.** And the Ratios n/e (eNOS [2])?
**A.** The Ratios n/e was 256.

**Q.** What about the Ratios n/i (iNOS [3]) of the same compound?
**A.** Its Ratios n/i is 430.

**Q.** What about the Ki (human nNOS) of the same compound?
**A.** The Ki was 4490 nM.

**Q.** What about the Ki (iNOS [5]) of the same compound?
**A.** Its Ki is 287 µM.

**Q.** Fc1cccc(CCNCCc2cncc(-n3ccnc3)c2)c1 [Compound 48] was tested. Which Ki (rat nNOS; [6]) did it give?
**A.** The Ki was 5500 nM.
